Test results taken from PubChem BioAssay AID256 (DTP/NCI, 2004).
“And” between values parts separate entries of the source, which are not always exact repeats. Equal values may be shown once. Toxic doses and inconclusive results are not listed. Rule for the calls: active = survival T/C of 150% or more; inactive = T/C below 125% in these data.

System: CD2F1 mice, L1210 leukemia ip, survival T/C
Test: NCI In Vivo Anticancer Drug Screen. Data for tumor model L1210 Leukemia (intraperitoneal) in CD2F1 (CDF1) mice
Details: higher = longer survival
Summary of the method: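 Vehicle-treated tumor-bearing mice served as controls (C) for compound-treated mice (T). Reported figure is T divided by C.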

[1] = endpoint: mean survival time, dose: 100.0 mg/kg/injection, schedule: Q04DX003 (ip), vehicle: Klucel (hydroxypropylcellulose) (HPC)
[2] = endpoint: mean survival time, dose: 200.0 mg/kg/injection, schedule: Q04DX003 (ip), vehicle: Klucel (hydroxypropylcellulose) (HPC)
[3] = endpoint: mean survival time, dose: 100.0 mg/kg/injection, schedule: Q04DX003 (ip), vehicle: saline with Tween-80
[4] = endpoint: mean survival time, dose: 200.0 mg/kg/injection, schedule: Q04DX003 (ip), vehicle: saline with Tween-80
[5] = endpoint: mean survival time, dose: 400.0 mg/kg/injection, schedule: Q04DX003 (ip), vehicle: saline with Tween-80
[6] = endpoint: mean survival time, dose: 100.0 mg/kg/injection, schedule: Q01DX009 (ip), vehicle: saline with Tween-80
[7] = endpoint: mean survival time, dose: 200.0 mg/kg/injection, schedule: Q01DX009 (ip), vehicle: saline with Tween-80
[8] = endpoint: mean survival time, dose: 400.0 mg/kg/injection, schedule: Q01DX009 (ip), vehicle: saline with Tween-80
[9] = endpoint: mean survival time, dose: 50.0 mg/kg/injection, schedule: Q04DX002 (ip), vehicle: saline with Tween-80
[10] = endpoint: mean survival time, dose: 12.5 mg/kg/injection, schedule: Q01DX009 (ip), vehicle: saline with Tween-80
[11] = endpoint: mean survival time, dose: 25.0 mg/kg/injection, schedule: Q01DX009 (ip), vehicle: saline with Tween-80
[12] = endpoint: mean survival time, dose: 50.0 mg/kg/injection, schedule: Q04DX003 (ip), vehicle: saline with Tween-80
[13] = endpoint: mean survival time, dose: 100.0 mg/kg/injection, schedule: Q01DX001 (ip), vehicle: saline
[14] = endpoint: mean survival time, dose: 200.0 mg/kg/injection, schedule: Q01DX001 (ip), vehicle: saline
[15] = endpoint: mean survival time, dose: 400.0 mg/kg/injection, schedule: Q01DX001 (ip), vehicle: saline
[16] = endpoint: mean survival time, dose: 100.0 mg/kg/injection, schedule: Q01DX001 (ip), vehicle: other
[17] = endpoint: mean survival time, dose: 200.0 mg/kg/injection, schedule: Q01DX001 (ip), vehicle: other
[18] = endpoint: mean survival time, dose: 400.0 mg/kg/injection, schedule: Q01DX001 (ip), vehicle: other
[19] = endpoint: mean survival time, dose: 100.0 mg/kg/injection, schedule: Q01DX001 (ip), vehicle: saline with Tween-80
[20] = endpoint: mean survival time, dose: 400.0 mg/kg/injection, schedule: Q01DX001 (ip), vehicle: saline with Tween-80

Measured: T/C

CC(O)C(=O)O.CCCCOC(=O)CC(O)(CC(=O)OCCCC)C(=O)OCCCC.[Cl-].[Cl-].[NH2-].[NH2-].[Pt+4]
inactive: endpoint: mean survival time, dose: 3.13 mg/kg/injection, schedule: Q04DX003 (ip), vehicle: Klucel (hydroxypropylcellulose) (HPC) 104 % of control and 108 % of control and 105 % of control | endpoint: mean survival time, dose: 6.25 mg/kg/injection, schedule: Q04DX003 (ip), vehicle: Klucel (hydroxypropylcellulose) (HPC) 108 % of control and 111 % of control and 98 % of control | endpoint: mean survival time, dose: 12.5 mg/kg/injection, schedule: Q04DX003 (ip), vehicle: Klucel (hydroxypropylcellulose) (HPC) 109 % of control [middle of 4 runs] | endpoint: mean survival time, dose: 25.0 mg/kg/injection, schedule: Q04DX003 (ip), vehicle: Klucel (hydroxypropylcellulose) (HPC) 96 % of control and 113 % of control and 104 % of control | [1] 95 % of control | [2] 113 % of control

O=S(=O)(Nc1ccccn1)c1ccc(Cl)cc1
inactive: [3] 91 % of control | [4] 95 % of control | [5] 90 % of control

COC(=O)C(NC(=O)C(C)NC(=O)OCc1ccccc1)C(C)C (stereo not given)
inactive: [6] 97 % of control | [7] 93 % of control | [8] 98 % of control

Nc1ccccc1Cl
inactive: endpoint: mean survival time, dose: 31.25 mg/kg/injection, schedule: Q01DX009 (ip), vehicle: saline with Tween-80 95 % of control | endpoint: mean survival time, dose: 31.25 mg/kg/injection, schedule: Q04DX003 (ip), vehicle: saline with Tween-80 97 % of control | endpoint: mean survival time, dose: 62.5 mg/kg/injection, schedule: Q01DX009 (ip), vehicle: saline with Tween-80 91 % of control | endpoint: mean survival time, dose: 62.5 mg/kg/injection, schedule: Q04DX003 (ip), vehicle: saline with Tween-80 101 % of control | endpoint: mean survival time, dose: 125.0 mg/kg/injection, schedule: Q01DX009 (ip), vehicle: saline with Tween-80 93 % of control | endpoint: mean survival time, dose: 125.0 mg/kg/injection, schedule: Q04DX003 (ip), vehicle: saline with Tween-80 101 % of control

COc1ccc(NC(=O)Nc2ccccc2Cl)c(OC)c1
inactive: endpoint: mean survival time, dose: 25.0 mg/kg/injection, schedule: Q04DX002 (ip), vehicle: saline with Tween-80 94 % of control | [9] 87 % of control | endpoint: mean survival time, dose: 100.0 mg/kg/injection, schedule: Q04DX002 (ip), vehicle: saline with Tween-80 102 % of control

CCCCC(CCCC)c1ccccn1
inactive: endpoint: mean survival time, dose: 6.25 mg/kg/injection, schedule: Q01DX009 (ip), vehicle: saline with Tween-80 91 % of control | [10] 96 % of control | [11] 96 % of control

O=C(CSC1=NCCN1)c1ccc([N+](=O)[O-])cc1
inactive: endpoint: mean survival time, dose: 25.0 mg/kg/injection, schedule: Q04DX003 (ip), vehicle: saline with Tween-80 94 % of control | [12] 93 % of control | [3] 93 % of control

Cc1ccccc1OCc1ccccc1
inactive: [12] 104 % of control | [3] 98 % of control and 101 % of control | [4] 102 % of control and 104 % of control | [5] 94 % of control

CCC1CCCCC1(O)CC (stereo not given)
inactive: [3] 106 % of control | [4] 103 % of control | [5] 103 % of control

N#CC1(OC2OC(CO)C(O)C(O)C2O)C=CC(O)C1O (stereo not given)
inactive: [13] 101 % of control | [14] 101 % of control | [15] 98 % of control

NC(=O)c1ncn(CCCCCO)c1N
inactive: [16] 91 % of control | [17] 103 % of control | [18] 101 % of control

O=C(O)CC1(c2ccccc2)OC(=O)c2ccccc21 (stereo not given)
inactive: [19] 91 % of control | [6] 96 % of control | endpoint: mean survival time, dose: 200.0 mg/kg/injection, schedule: Q01DX001 (ip), vehicle: saline with Tween-80 94 % of control | [7] 100 % of control | [20] 89 % of control

CC(NC=O)(C(=O)O)c1ccccc1 (stereo not given)
inactive: endpoint: mean survival time, dose: 50.0 mg/kg/injection, schedule: Q01DX001 (ip), vehicle: other 102 % of control | [16] 97 % of control and 90 % of control | [17] 100 % of control and 102 % of control | [18] 97 % of control

Cn1c(-c2ccccc2)nc2c(N)ncnc21
inactive: [19] 93 % of control | [20] 87 % of control

CCCC[PH+](CCCC)CCCC.CCCC[PH+](CCCC)CCCC.O=[N+]([O-])O.O=[N+]([O-])O.[Ni]
inactive: [9] 92 % of control

O=c1o[nH]c(-c2ccccc2)c1-c1ccccc1
inactive: [12] 95 % of control | [3] 98 % of control | [4] 106 % of control

Cn1c(N)n[nH]c1=S
inactive: [3] 93 % of control | [4] 108 % of control | [5] 88 % of control

CC(C)OC(=O)C(NC=O)C(C)(C)S (stereo not given)
inactive: [6] 100 % of control | [7] 96 % of control | [8] 95 % of control

O=S(=O)(O)SCC1=NCCCCN1
inactive: [3] 101 % of control

Cc1cc(C)c(Sc2c3ccccc3cc3ccccc23)c(C)c1
inactive: [13] 91 % of control | endpoint: mean survival time, dose: 100.0 mg/kg/injection, schedule: Q04DX003 (ip), vehicle: saline 93 % of control | [14] 101 % of control | endpoint: mean survival time, dose: 200.0 mg/kg/injection, schedule: Q04DX003 (ip), vehicle: saline 87 % of control | [15] 100 % of control | endpoint: mean survival time, dose: 400.0 mg/kg/injection, schedule: Q04DX003 (ip), vehicle: saline 95 % of control

COc1ccc(C(=CC2=CC(=O)C3=C(CCCC3)C2=O)c2ccc(OC)cc2)cc1
inactive: endpoint: mean survival time, dose: 100.0 mg/kg/injection, schedule: Q04DX003 (ip), vehicle: saline sonified 96 % of control | endpoint: mean survival time, dose: 200.0 mg/kg/injection, schedule: Q04DX003 (ip), vehicle: saline sonified 100 % of control | endpoint: mean survival time, dose: 400.0 mg/kg/injection, schedule: Q04DX003 (ip), vehicle: saline sonified 97 % of control

C[Si](C)(C)n1nnn(-c2ccccc2)c1=O
inactive: [10] 97 % of control and 100 % of control | [11] 97 % of control | endpoint: mean survival time, dose: 50.0 mg/kg/injection, schedule: Q01DX009 (ip), vehicle: saline with Tween-80 97 % of control and 101 % of control | [6] 100 % of control and 103 % of control | [7] 100 % of control and 103 % of control | [8] 101 % of control

c1ccc(CN(c2ccccc2)C2CCCCC2)cc1
inactive: [1] 91 % of control | [2] 91 % of control

CC1(C)CC(=O)C2=C(C1)OC1=C(C(=O)CC(C)(C)C1)C2c1ccccc1[N+](=O)[O-]
inactive: [6] 100 % of control | [7] 95 % of control | [8] 94 % of control

C[N+](C)(CC(=O)Nc1ccc(Cl)c(Cl)c1)CC(=O)c1ccc(Cl)cc1
inactive: endpoint: mean survival time, dose: 25.0 mg/kg/injection, schedule: Q01DX009 (ip), vehicle: saline 87 % of control

C=C(C)C(=O)OCC(O)C[N+](C)(C)C (stereo not given)
inactive: [12] 96 % of control | [3] 87 % of control

COC1C(O)C(C)OC(O[C@@H]2C[C@H]3CC[C@@H]4[C@H](CC[C@]5(C)[C@@H](C6=CC(=O)OC6)CC[C@]45O)[C@@]3(C)[C@H](O)C2)C1O (stereo not given in full)
inactive: endpoint: mean survival time, dose: 75.0 mg/kg/injection, schedule: Q01DX001 (ip), vehicle: other 90 % of control | endpoint: mean survival time, dose: 150.0 mg/kg/injection, schedule: Q01DX001 (ip), vehicle: other 91 % of control

Cc1[nH]nc2c(=O)n(C)cnc12
inactive: endpoint: mean survival time, dose: 12.5 mg/kg/injection, schedule: Q01DX005 (ip), vehicle: water 103 % of control | endpoint: mean survival time, dose: 25.0 mg/kg/injection, schedule: Q01DX005 (ip), vehicle: water 104 % of control | endpoint: mean survival time, dose: 50.0 mg/kg/injection, schedule: Q01DX005 (ip), vehicle: water 98 % of control | endpoint: mean survival time, dose: 100.0 mg/kg/injection, schedule: Q01DX005 (ip), vehicle: water 92 % of control | endpoint: mean survival time, dose: 200.0 mg/kg/injection, schedule: Q01DX005 (ip), vehicle: water 95 % of control

CSc1nc(NC2OC(CO)C(O)C(O)C2O)c(I)c(=O)n1C (stereo not given)
inactive: endpoint: median survival time, dose: 12.5 mg/kg/injection, schedule: Q01DX005 (ip), vehicle: saline with Tween-80 100 % of control | endpoint: median survival time, dose: 25.0 mg/kg/injection, schedule: Q01DX005 (ip), vehicle: saline with Tween-80 100 % of control | endpoint: median survival time, dose: 50.0 mg/kg/injection, schedule: Q01DX005 (ip), vehicle: saline with Tween-80 103 % of control | endpoint: median survival time, dose: 100.0 mg/kg/injection, schedule: Q01DX005 (ip), vehicle: saline with Tween-80 107 % of control | endpoint: median survival time, dose: 200.0 mg/kg/injection, schedule: Q01DX005 (ip), vehicle: saline with Tween-80 119 % of control

O=C(O)C1CCCN1C(=O)c1ccccc1 (stereo not given)
inactive: [3] 103 % of control | [4] 93 % of control | [5] 98 % of control

CCc1ccccc1NC(=O)/C=C/C(=O)O
inactive: [6] 102 % of control | [3] 98 % of control | [7] 100 % of control | [8] 102 % of control | [5] 92 % of control
